Measurements as given in patent publication US7138361B2, “Herbicidal heterocycles” (E. I. du Pont de Nemours and Company, priority 2000, dated 2006).

What was measured:
Assay type in all cases: in vivo
[1] = system: cocklebur (Xanthium strumarium); assay: Test B postemergence; details: 13 to 15 days
How it was run: (§1)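 Seeds were planted and sprayed preemergence with test chemical in a non-phytotoxic solvent mixture containing surfactant; postemergence plants (2 to 18 cm, 1- to 4-leaf stage) received the same formulation. Greenhouse hold 13 to 15 days, then visual rating versus untreated controls on a 0–100 scale (0 no effect, 100 complete control).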

[2] = system: crabgrass (Digitaria sanguinalis); assay: Test B postemergence; details: 13 to 15 days
How it was run: as §1

[3] = system: lambsquarters (Chenopodium album); assay: Test B postemergence; details: 13 to 15 days
How it was run: as §1

wild oat (Avena fatua) = assay: Test B postemergence; details: 13 to 15 days
How it was run: as §1

Sunflower = assay: Test C preemergence; details: scale 0 to 100, 0 no effect, 100 complete control
Description: (§2) Seeds of plant species selected from bermudagrass (Cynodon dactylon), Surinam grass (Brachiaria decumbens), cocklebur (Xanthium strumarium), corn (Zea mays), crabgrass (Digitaria sanguinalis), woolly cupgrass (Eriochloa villosa), giant foxtail (Setaria faberii), goosegrass (Eleusine indica), johnsongrass (Sorghum halepense), kochia (Kochia scoparia), lambsquarters (Chenopodium album), morningglory (Ipomoea hederacea), yellow nutsedge (Cyperus esculentus), pigweed (Amaranthus retroflexus), common ragweed (Ambrosia elatior), soybean (Glycine max) and velvetleaf (Abutilon theophrasti) were planted and treated preemergence with test chemicals formulated in a non-phytotoxic solvent mixture which included a surfactant.
(§3) At the same time, plants selected from these crop and weed species and also winter barley (Hordeum vulgare), blackgrass (Alopecurus myosuroides), canary grass (Phalaris minor), chickweed (Stellaria media), downy brome (Bromus tectorum), green foxtail (Setaria viridis), Italian ryegrass (Lolium multiflorum), wheat (Triticum aestivum), wild oat (Avena fatua) and windgrass (Apera spica-venti) were treated with postemergence applications of some of the test chemicals formulated in the same manner. Plants ranged in height from 2 to 18 cm (1- to 4-leaf stage) for postemergence treatments. Plant species in the flooded paddy test consisted of rice (Oryza saliva), smallflower flatsedge (Cyperus difformis), duck salad (Heteranthera limosa) and barnyardgrass (Echinochloa crus-galli) grown to the 2-leaf stage for testing. Treated plants and controls were maintained in a greenhouse for 12 to 14 days, after which time all species were compared to controls and visually evaluated. Plant response ratings, summarized in Table C, are based on a scale of 0 to 100 where 0 is no effect and 100 is complete control. A dash (-) response means no test result.

[4] = system: woolly cupgrass (Eriochloa villosa); assay: Test C preemergence
Description: as §2, §3

[5] = system: bermudagrass (Cynodon dactylon); assay: Test C preemergence
Description: as §2, §3

[6] = system: cocklebur (Xanthium strumarium); assay: Test C preemergence
Description: as §2, §3

[7] = system: lambsquarters (Chenopodium album); assay: Test C preemergence
Description: as §2, §3

[8] = system: common ragweed (Ambrosia elatior); assay: Test C preemergence
Description: as §2, §3

[9] = system: velvetleaf (Abutilon theophrasti); assay: Test C preemergence
Description: as §2, §3

[10] = system: pigweed (Amaranthus retroflexus); assay: Test C preemergence
Description: as §2, §3

Nightshade = assay: Test C preemergence
Description: as §2, §3

[11] = system: Surinam grass (Brachiaria decumbens); assay: Test C preemergence
Description: as §2, §3

kochia (Kochia scoparia) = assay: Test C preemergence
Description: as §2, §3

[12] = system: giant foxtail (Setaria faberii); assay: Test C preemergence
Description: as §2, §3

corn (Zea mays) = assay: Test C preemergence
Description: as §2, §3

soybean (Glycine max) = assay: Test C preemergence
Description: as §2, §3

[13] = system: johnsongrass (Sorghum halepense); assay: Test C preemergence
Description: as §2, §3

[14] = Rate 125 g/ha, scale 0 (no effect) to 100 (complete control)
[15] = Rate 500 g/ha, scale 0 to 100, 0 is no effect, 100 is complete control
[16] = Rate 62 g/ha, scale 0 to 100, 0 no effect, 100 complete control
[17] = preemergence, Rate 16 g/ha, scale 0 to 100
[18] = preemergence, Rate 31 g/ha, scale 0 to 100
[19] = preemergence, Rate 125 g/ha, scale 0 to 100, 0 no effect, 100 complete control
[20] = Rate 125 g/ha, scale 0 to 100, 0 no effect, 100 complete control
[21] = preemergence, Rate 62 g/ha, scale 0 to 100
[22] = preemergence, Rate 250 g/ha, scale 0 to 100, 0 no effect, 100 complete control

## CC(C)(C)c1ccn(C2CCN(c3cccc(Cl)c3)C2=O)n1 (centres unmarked) [Compound 43]
[1]; [14]
  Plant response rating, Cocklebur: 0
[1]; [15]
  Plant response rating, Cocklebur: 0
[2]; [14]
  Plant response rating, Crabgrass: 0
[2]; [15]
  Plant response rating, Crabgrass: 50
[3]; [14]
  Plant response rating, Lambsquarters: 50
[3]; [15]
  Plant response rating, Lambsquarters: 80
Wild oat (Avena fatua); [14]
  Plant response rating, Wild Oat: 0
Wild oat (Avena fatua); [15]
  Plant response rating, Wild Oat: 0
Sunflower; Rate 62 g/ha
  Plant response rating, Sunflower: 0
[4]; [16]
  Plant response rating, Cupgrass, Woolly: 30
[4]; [17]
  Plant response rating, Cupgrass, Woolly: 0
[4]; [18]
  Plant response rating, Cupgrass, Woolly: 0
[4]; [19]
  Plant response rating, Cupgrass, Woolly: 30
[5]; [16]
  Plant response rating, Bermudagrass: 50
[5]; [17]
  Plant response rating, Bermudagrass: 20
[5]; [18]
  Plant response rating, Bermudagrass: 40
[5]; [19]
  Plant response rating, Bermudagrass: 60
[6]; [16]
  Plant response rating, Cocklebur: 100
[6]; [17]
  Plant response rating, Cocklebur: 0
[6]; [18]
  Plant response rating, Cocklebur: 20
[6]; [19]
  Plant response rating, Cocklebur: 100
[7]; [16]
  Plant response rating, Lambsquarters: 100
[7]; [17]
  Plant response rating, Lambsquarters: 100
[7]; [18]
  Plant response rating, Lambsquarters: 100
[7]; [19]
  Plant response rating, Lambsquarters: 100
[8]; [16]
  Plant response rating, Ragweed, Common: 0
[8]; [17]
  Plant response rating, Ragweed, Common: 0
[8]; [18]
  Plant response rating, Ragweed, Common: 0
[8]; [19]
  Plant response rating, Ragweed, Common: 30
[9]; [16]
  Plant response rating, Velvetleaf: 0
[9]; [17]
  Plant response rating, Velvetleaf: 0
[9]; [18]
  Plant response rating, Velvetleaf: 0
[9]; [19]
  Plant response rating, Velvetleaf: 0
[10]; [16]
  Plant response rating, Pigweed: 100
[10]; [17]
  Plant response rating, Pigweed: 20
[10]; [18]
  Plant response rating, Pigweed: 100
[10]; [19]
  Plant response rating, Pigweed: 0
Nightshade; Rate 16 g/ha, scale 0 to 100
  Plant response rating, Nightshade: 0
Nightshade; Rate 31 g/ha, scale 0 to 100
  Plant response rating, Nightshade: 0
Nightshade; Rate 62 g/ha; scale 0 to 100, 0 no effect, 100 complete control
  Plant response rating, Nightshade: 0
Nightshade; [20]
  Plant response rating, Nightshade: 0
[11]; [16]
  Plant response rating, Surinam grass: 0
[11]; [17]
  Plant response rating, Surinam grass: 0
[11]; [18]
  Plant response rating, Surinam grass: 0
[11]; [19]
  Plant response rating, Surinam grass: 0
Kochia (Kochia scoparia); [16]
  Plant response rating, Kochia: 90
Kochia (Kochia scoparia); [17]
  Plant response rating, Kochia: 20
Kochia (Kochia scoparia); [18]
  Plant response rating, Kochia: 70
Kochia (Kochia scoparia); [19]
  Plant response rating, Kochia: 100
[12]; [16]
  Plant response rating, Foxtail, Giant: 0
[12]; [17]
  Plant response rating, Foxtail, Giant: 0
[12]; [18]
  Plant response rating, Foxtail, Giant: 0
[12]; [19]
  Plant response rating, Foxtail, Giant: 0
Corn (Zea mays); [16]
  Plant response rating, Corn: 0
Corn (Zea mays); [17]
  Plant response rating, Corn: 0
Corn (Zea mays); [18]
  Plant response rating, Corn: 0
Corn (Zea mays); [19]
  Plant response rating, Corn: 0
Soybean (Glycine max); [16]
  Plant response rating, Soybean: 0
Soybean (Glycine max); [17]
  Plant response rating, Soybean: 0
Soybean (Glycine max); [18]
  Plant response rating, Soybean: 0
Soybean (Glycine max); [19]
  Plant response rating, Soybean: 40
[13]; [16]
  Plant response rating, Johnsongrass: 0
[13]; [17]
  Plant response rating, Johnsongrass: 0
[13]; [18]
  Plant response rating, Johnsongrass: 0
[13]; [19]
  Plant response rating, Johnsongrass: 50

## CCOc1cc(N2CCC(n3ccc(C(C)(C)C)n3)C2=O)ccc1C (centres unmarked) [Compound 106]
[1]; [14]
  Plant response rating, Cocklebur: 90
[1]; [15]
  Plant response rating, Cocklebur: 90
[2]; [14]
  Plant response rating, Crabgrass: 0
[2]; [15]
  Plant response rating, Crabgrass: 0
[3]; [15]
  Plant response rating, Lambsquarters: 100
Wild oat (Avena fatua); [15]
  Plant response rating, Wild Oat: 0
Sunflower; Rate 125 g/ha
  Plant response rating, Sunflower: 80
[4]; [20]
  Plant response rating, Cupgrass, Woolly: 100
[4]; [18]
  Plant response rating, Cupgrass, Woolly: 60
[4]; [21]
  Plant response rating, Cupgrass, Woolly: 100
[4]; [22]
  Plant response rating, Cupgrass, Woolly: 100
[5]; [20]
  Plant response rating, Bermudagrass: 100
[5]; [18]
  Plant response rating, Bermudagrass: 100
[5]; [21]
  Plant response rating, Bermudagrass: 100
[5]; [22]
  Plant response rating, Bermudagrass: 100
[6]; [20]
  Plant response rating, Cocklebur: 90
[6]; [18]
  Plant response rating, Cocklebur: 70
[6]; [21]
  Plant response rating, Cocklebur: 90
[6]; [22]
  Plant response rating, Cocklebur: 100
[7]; [20]
  Plant response rating, Lambsquarters: 100
[7]; [18]
  Plant response rating, Lambsquarters: 100
[7]; [21]
  Plant response rating, Lambsquarters: 100
[7]; [22]
  Plant response rating, Lambsquarters: 100
[8]; [20]
  Plant response rating, Ragweed, Common: 100
[8]; [18]
  Plant response rating, Ragweed, Common: 80
[8]; [21]
  Plant response rating, Ragweed, Common: 100
[8]; [22]
  Plant response rating, Ragweed, Common: 100
[9]; [20]
  Plant response rating, Velvetleaf: 100
[9]; [18]
  Plant response rating, Velvetleaf: 90
[9]; [21]
  Plant response rating, Velvetleaf: 100
[9]; [22]
  Plant response rating, Velvetleaf: 100
[10]; [20]
  Plant response rating, Pigweed: 100
[10]; [18]
  Plant response rating, Pigweed: 70
[10]; [21]
  Plant response rating, Pigweed: 100
[10]; [22]
  Plant response rating, Pigweed: 90
Nightshade; Rate 31 g/ha, scale 0 to 100
  Plant response rating, Nightshade: 100
Nightshade; Rate 62 g/ha, scale 0 to 100
  Plant response rating, Nightshade: 100
Nightshade; Rate 125 g/ha; scale 0 to 100, 0 no effect, 100 complete control
  Plant response rating, Nightshade: 100
Nightshade; Rate 250 g/ha, scale 0 to 100, 0 no effect, 100 complete control
  Plant response rating, Nightshade: 100
[11]; [20]
  Plant response rating, Surinam grass: 90
[11]; [18]
  Plant response rating, Surinam grass: 30
[11]; [21]
  Plant response rating, Surinam grass: 90
[11]; [22]
  Plant response rating, Surinam grass: 100
Kochia (Kochia scoparia); [20]
  Plant response rating, Kochia: 100
Kochia (Kochia scoparia); [18]
  Plant response rating, Kochia: 100
Kochia (Kochia scoparia); [21]
  Plant response rating, Kochia: 100
Kochia (Kochia scoparia); [22]
  Plant response rating, Kochia: 100
[12]; [20]
  Plant response rating, Foxtail, Giant: 40
[12]; [18]
  Plant response rating, Foxtail, Giant: 0
[12]; [21]
  Plant response rating, Foxtail, Giant: 0
[12]; [22]
  Plant response rating, Foxtail, Giant: 100
Corn (Zea mays); [20]
  Plant response rating, Corn: 0
Corn (Zea mays); [18]
  Plant response rating, Corn: 0
Corn (Zea mays); [21]
  Plant response rating, Corn: 0
Corn (Zea mays); [22]
  Plant response rating, Corn: 40
Soybean (Glycine max); [20]
  Plant response rating, Soybean: 100
Soybean (Glycine max); [18]
  Plant response rating, Soybean: 80
Soybean (Glycine max); [21]
  Plant response rating, Soybean: 100
Soybean (Glycine max); [22]
  Plant response rating, Soybean: 100
[13]; [20]
  Plant response rating, Johnsongrass: 100
[13]; [18]
  Plant response rating, Johnsongrass: 30
[13]; [21]
  Plant response rating, Johnsongrass: 70
[13]; [22]
  Plant response rating, Johnsongrass: 100
